The source of these data is ChEMBL document CHEMBL1201862, “PubChem BioAssay data set” (2004).

Counter-ions that a name gives are not always drawn.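 Results reflect a 48-hour exposure of cells in 96-well plates to compound at five concentrations. Here, GI50 denotes the concentration required for 50% inhibition of growth.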 The source made the active and inactive calls. Cut-off read from the data, not from the text of the source: active = GI50 up to about 1.1 µM and inactive = higher.

Common to all, as to assay: NCI tumour cell line growth inhibition, 48 h
Assay [1] deals with 786-0.
Assay [2] relates to DU-145.
Assay [3] has as its system EKVX.
The subject of assay [4] is HCT-116.
Assay [5] relates to K562.
The test system of assay [6] is LOX IMVI.
Assay [7] relates to MCF7.
Assay [8] deals with MDA-MB-231.
In assay [9] the test system is MDA-N.
In assay [10] the test system is Malme-3M.
The test system of assay [11] is NCI-H460.
Assay [12] concerns OVCAR-4.
The subject of assay [13] is RXF 393.
Assay [14] has as its system SF-268.
Assay [15] has as its system SK-OV-3.
Assay [16] concerns SN12C.
In assay [17] the test system is SW-620.
For assay [18], the system named is TK-10.
For assay [19], the system named is U-251.
The subject of assay [20] is UACC-62.

Regarding `Cc1ccc(C2(c3ccc(Cl)cc3)c3ccccc3C3=NCCN32)cc1` (stereo unspecified), the GI50 was 13.1 µM (inactive) in [1]; 13.2 µM (inactive) in assay [2]; 14.1 µM (inactive) in assay [3]; 2.19 µM (inactive) in assay [4]; 3.74 µM (inactive) in [5]; 12.8 µM (inactive) in assay [6]. Moreover, the GI50 in assay [7] is 1.44 µM (inactive); in [8] it was 5.7 µM (inactive); in assay [9] it was 3.37 µM (inactive); in assay [10] it was 3.67 µM (inactive); in [11], 6 µM (inactive); in assay [12], 1.83 µM (inactive). The GI50 in [13] was 2.31 µM (inactive); in assay [14], 15.1 µM (inactive); in assay [15], 6.08 µM (inactive); in assay [16], 15.1 µM (inactive); in assay [17] it was 10.8 µM (inactive); in [18], 5.43 µM (inactive). For the same compound, the values for the GI50 in [19] and in assay [20] were 11.5 µM (inactive) and 7.1 µM (inactive), respectively.

With `N=c1c2c3n(c4c(=O)n(-c5ccccc5)c(=S)n(c(=O)n1-c1ccccc1)c24)CCCCC3`, the GI50 is > 100 µM (inactive) in [1]; > 100 µM (inactive) in assay [2]; > 91.4 µM (inactive) in assay [3]; > 100 µM (inactive) in assay [4]; > 100 µM (inactive) in assay [6]; > 100 µM (inactive) in assay [7]. In addition, the GI50 in [8] was > 100 µM (inactive); in assay [9], > 100 µM (inactive); in assay [10], > 100 µM (inactive); in assay [11], > 100 µM (inactive); in [12], > 100 µM (inactive); in [13], > 75.7 µM (inactive). In addition, the GI50 in [14] is > 100 µM (inactive); in assay [15], > 81.1 µM (inactive); in assay [16] it was > 100 µM (inactive); in assay [17], > 100 µM (inactive); in assay [18], > 100 µM (inactive); in assay [19] it was > 100 µM (inactive). Also, in assay [20], the GI50 is > 100 µM (inactive).

In the case of `Oc1ccc(SCc2cc(O)ccc2O)cc1`, the GI50 was 12.8 µM (inactive) in [1]; 24.7 µM (inactive) in assay [2]; 18.9 µM (inactive) in assay [3]; 11.2 µM (inactive) in assay [4]; 3.96 µM (inactive) in [5]; 16.6 µM (inactive) in assay [6]. The GI50 was 12.6 µM (inactive) in [7]; 16.5 µM (inactive) in assay [8]; 14.4 µM (inactive) in assay [9]; 19.5 µM (inactive) in [10]; 28.9 µM (inactive) in assay [11]; 5.5 µM (inactive) in assay [12]. The GI50 in [13] is 11.9 µM (inactive); in [14], 9.04 µM (inactive); in assay [15], 30.2 µM (inactive); in [16] it was 10.2 µM (inactive); in [17], 19.1 µM (inactive); in assay [18] it was 18.4 µM (inactive). Further, the GI50 in assay [19] was 14.5 µM (inactive); in assay [20] it was 17.1 µM (inactive).

As to `CCOC(=O)C(=[N+]=[N-])C(=O)Nc1nn2nnnc2c2ccccc12`, the GI50 in assay [1], in [2], in [3], in assay [4], in assay [5] and in [6] was > 100 µM (inactive) in each case. Further, the GI50 in assay [7], in [8], in assay [9], in assay [10], in [11] and in [12] was > 100 µM (inactive) each time. The GI50 in [13], in assay [15], in assay [16], in [17], in assay [19] and in assay [20] was > 100 µM (inactive) in each case.

`Oc1cc(-c2cccc(Br)c2)nc2cc3c(cc12)OCO3`: the GI50 is 3.52 µM (inactive) in assay [1]; 5.43 µM (inactive) in assay [2]; 3.53 µM (inactive) in assay [4]; 3.74 µM (inactive) in [5]; 2.75 µM (inactive) in assay [6]; 18.7 µM (inactive) in assay [7]. In addition, the GI50 in [8] is 10.1 µM (inactive); in assay [9] it was 0.31 µM (active); in assay [10] it was 2.7 µM (inactive); in assay [11] it was 4.01 µM (inactive); in assay [12], > 30.8 µM (inactive); in assay [13] it was 4.33 µM (inactive). For the same compound, the GI50 in assay [14] was 4.36 µM (inactive); in assay [15] it was 3.8 µM (inactive); in assay [16], 5.6 µM (inactive); in [17] it was 3.61 µM (inactive); in assay [18] it was 12.9 µM (inactive); in [19], 3.56 µM (inactive). The GI50 in assay [20] was 1.75 µM (inactive).

Regarding `CCOP(=O)(OCC)/C(C#N)=C/c1cccn1C`, the GI50 in assay [1], in [2], in [3], in assay [4], in assay [6] and in assay [7] was > 100 µM (inactive) each time. For the same compound, the GI50 in assay [8], in [9], in assay [10], in assay [11], in [12] and in assay [13] was > 100 µM (inactive) throughout. Also, the GI50 in assay [14], in assay [15], in assay [16], in [17], in assay [18] and in assay [19] was > 100 µM (inactive) throughout. The GI50 in assay [20] was > 100 µM (inactive).

Consider `C#CCOCC12C=CC(O1)C1C(=O)N(C)C(=O)C12` (stereo unspecified), for which the GI50 in assay [1], in assay [2], in [3], in assay [4], in [6] and in assay [7] was > 100 µM (inactive) in each case. Moreover, the GI50 in assay [8], in assay [9], in assay [10], in assay [11], in assay [12] and in [13] was > 100 µM (inactive) throughout. Besides, the GI50 in [14], in assay [15], in assay [16], in [17], in assay [18] and in assay [19] was > 100 µM (inactive) throughout. Besides, the GI50 in [20] is > 100 µM (inactive).

Turning to `CSc1nc(SC)c2c(C)cn(COCCOC(=O)c3ccccc3)c2n1`, the GI50 in [1] is > 100 µM (inactive); in assay [2], 69.8 µM (inactive); in assay [3], > 100 µM (inactive); in assay [4], 83 µM (inactive); in [6] it was 58.2 µM (inactive); in assay [7], 76.4 µM (inactive). Moreover, the GI50 in [8] is > 100 µM (inactive); in assay [9] it was > 100 µM (inactive); in assay [10], > 100 µM (inactive); in assay [11] it was 88.5 µM (inactive); in assay [12], > 100 µM (inactive); in assay [13] it was 82.6 µM (inactive). In addition, the GI50 was > 100 µM (inactive) in assay [14]; 24.3 µM (inactive) in assay [15]; > 100 µM (inactive) in [16]; > 100 µM (inactive) in assay [17]; > 100 µM (inactive) in assay [18]; > 100 µM (inactive) in assay [19]. Besides, the GI50 in [20] was > 100 µM (inactive).

With `CN(C)CCOC(=O)COc1ccc(Cl)cc1` [CENTROPHENOXINE HYDROCHLORIDE], the GI50 in assay [1], in assay [2], in [3], in [4], in assay [5] and in assay [6] was > 100 µM (inactive) each time. Moreover, the GI50 in [7] was 38.8 µM (inactive); in assay [8] it was > 100 µM (inactive); in assay [9], > 100 µM (inactive); in assay [10], > 100 µM (inactive); in assay [11] it was > 100 µM (inactive); in assay [12] it was > 100 µM (inactive). Further, the GI50 in assay [13], in assay [14], in assay [15], in [16], in assay [17] and in assay [19] was > 100 µM (inactive) in each case. In addition, in assay [20], the GI50 is > 100 µM (inactive).

Regarding `Cc1cc(S(=O)(=O)Nc2nc(-c3ccccn3)n[nH]2)c(S)cc1Cl`, the GI50 in assay [1] is 12.1 µM (inactive); in [2] it was 19.2 µM (inactive); in [3], 16.1 µM (inactive); in assay [4], 16.1 µM (inactive); in assay [6], 27.2 µM (inactive); in assay [7], 31.3 µM (inactive). The GI50 in assay [8] is 29.2 µM (inactive); in assay [9] it was 42.2 µM (inactive); in [10] it was 18.1 µM (inactive); in assay [11], 10.6 µM (inactive); in assay [12], 18.6 µM (inactive); in [13], 17.4 µM (inactive). Besides, the GI50 in assay [14] was 17.7 µM (inactive); in assay [15] it was 12.9 µM (inactive); in assay [16], 36.2 µM (inactive); in assay [17], 12.2 µM (inactive); in [18], 10 µM (inactive); in assay [19] it was 13.3 µM (inactive). For the same compound, the GI50 in assay [20] is 7.96 µM (inactive).
